Reference: ChEMBL document CHEMBL1201862, “PubChem BioAssay data set” (2004)
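Cultured in 96-well plates, cells were exposed to test compound for 48 hours across five concentrations. GI50 is the concentration that inhibits growth by half.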 Active and inactive are the calls of the source. Rule as the data show it: active = GI50 up to about 1.1 µM and inactive = higher.

Legend:
Test in all cases: NCI anticancer screen, dose series, 48 h
A498 = system: A498
ACHN = system: ACHN
COLO 205 = system: COLO 205
EKVX = system: EKVX
HCC 2998 = system: HCC 2998
HCT-116 = system: HCT-116
IGROV-1 = system: IGROV-1
LOX IMVI = system: LOX IMVI
M14 = system: M14
MCF7 = system: MCF7
NCI-H226 = system: NCI-H226
NCI-H522 = system: NCI-H522
NCI/ADR-RES = system: NCI/ADR-RES
OVCAR-5 = system: OVCAR-5
RXF 393 = system: RXF 393
SF-268 = system: SF-268
SK-MEL-28 = system: SK-MEL-28
SK-OV-3 = system: SK-OV-3
SNB-75 = system: SNB-75
UO-31 = system: UO-31

| Compound | GI50 (A498) | GI50 (ACHN) | GI50 (COLO 205) | GI50 (EKVX) | GI50 (HCC 2998) | GI50 (HCT-116) | GI50 (IGROV-1) | GI50 (LOX IMVI) | GI50 (M14) | GI50 (MCF7) | GI50 (NCI-H226) | GI50 (NCI-H522) | GI50 (NCI/ADR-RES) | GI50 (OVCAR-5) | GI50 (RXF 393) | GI50 (SF-268) | GI50 (SK-MEL-28) | GI50 (SK-OV-3) | GI50 (SNB-75) | GI50 (UO-31) |
| --- | --- | --- | --- | --- | --- | --- | --- | --- | --- | --- | --- | --- | --- | --- | --- | --- | --- | --- | --- | --- |
| CNc1cc2c(c3ccccc13)C(CCl)CN2C(=O)c1cc2cc(OC)c(OC)c(OC)c2[nH]1 (stereo unspecified) | 0.00261 µM (active) | 0.000124 µM (active) | 0.00227 µM (active) | 0.00381 µM (active) | < 0.01 µM (active) | 0.00106 µM (active) | 0.00243 µM (active) | 0.00106 µM (active) | 0.00235 µM (active) | 0.000822 µM (active) | 0.0138 µM (active) | < 0.01 µM (active) | 0.000991 µM (active) | 0.0052 µM (active) | < 0.01 µM (active) | 0.0017 µM (active) | 0.0122 µM (active) | 0.0116 µM (active) | 0.00252 µM (active) | 0.00223 µM (active) |
| Cc1c2cc[n+](C)cc2c(COC2OC(CO)C(O)C2O)c2c3ccccc3n(C)c12 (stereo unspecified) | > 100 µM (inactive) | – | > 100 µM (inactive) | > 95.5 µM (inactive) | > 100 µM (inactive) | > 100 µM (inactive) | > 100 µM (inactive) | > 100 µM (inactive) | – | > 100 µM (inactive) | 28.6 µM (inactive) | 63.1 µM (inactive) | > 97.7 µM (inactive) | > 100 µM (inactive) | > 100 µM (inactive) | 15.8 µM (inactive) | 53 µM (inactive) | > 88.7 µM (inactive) | 25 µM (inactive) | > 100 µM (inactive) |
| CNC(=O)OCc1nc(SC)n(C)c1CO | > 100 µM (inactive) | – | > 100 µM (inactive) | > 100 µM (inactive) | > 100 µM (inactive) | > 100 µM (inactive) | > 100 µM (inactive) | > 100 µM (inactive) | – | > 100 µM (inactive) | > 100 µM (inactive) | > 100 µM (inactive) | > 100 µM (inactive) | > 100 µM (inactive) | > 100 µM (inactive) | > 100 µM (inactive) | > 100 µM (inactive) | > 100 µM (inactive) | > 100 µM (inactive) | > 100 µM (inactive) |
| CCc1c(C)c(C#N)c(=S)n(C2OC(COC(C)=O)C(OC(C)=O)C(OC(C)=O)C2OC(C)=O)c1-c1ccccc1 (stereo unspecified) | 14.6 µM (inactive) | 23.7 µM (inactive) | > 31.6 µM (inactive) | 97.9 µM (inactive) | > 31.6 µM (inactive) | 26.7 µM (inactive) | 23.7 µM (inactive) | > 31.6 µM (inactive) | > 31.6 µM (inactive) | > 31.6 µM (inactive) | 18.5 µM (inactive) | 26.1 µM (inactive) | > 31.6 µM (inactive) | > 31.6 µM (inactive) | > 10 µM (inactive) | > 31.6 µM (inactive) | > 31.6 µM (inactive) | > 10 µM (inactive) | 1.84 µM (inactive) | > 24.6 µM (inactive) |
